This note sets out measurements from patent US20040023884A1, “Biologically active peptides from functional domains of bactericidal/permeability-increasing protein and uses thereof” (priority 1993, published 2004).

The test system of one experiment is C. albicans. The experiment can be described thus: Radial diffusion fungicidal assay, Candida albicans. The experiment is classed as cell-based. As to conditions: for C. albicans: pmol required for 30 mm^2 zone: radial diffusion.
Another experiment relates to Staphylococcus aureus. Kind of experiment: Radial diffusion bactericidal assay, Staphylococcus aureus. The experiment is classed as cell-based. As to conditions: radial diffusion; PROBIT analysis; S. aureus.
A further experiment has as its system Candida albicans. The experiment is classed as cell-based.
Experiment [1] deals with E. coli 0111:B4 (smooth) bacteria. The experiment can be described thus: Radial diffusion bactericidal assay, E. coli 0111:B4. In kind it is cell-based. As to conditions: radial diffusion; PROBIT analysis; E. coli O111:B4 (smooth).
The subject of experiment [2] is rough mutant E. coli J5 bacteria. Kind of experiment: Radial diffusion bactericidal assay, E. coli J5. In kind it is cell-based. The conditions noted are these: radial diffusion; for pmol added to well to achieve a 30 mm^2 bactericidal zone, E. coli J5: PROBIT analysis, E. coli J5 (rough). In short, it runs like this: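 Wells received 5 or 10 μL of BPI fragment, pre-incubated 3 h at 37 °C. The underlayer agarose carried washed log-phase organisms at 4×10^6 CFU/mL.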

For the next experiment, the system named is RAW 264.7 cells. The experiment can be described thus: LPS neutralization cellular proliferation assay, RAW 264.7 cells. In kind it is cell-based, mouse. The protocol:
In this assay, mouse RAW 264.7 cells (ATCC Accession No. T1B71), maintained in RPMI 1640 media (GIBCO), supplemented with 10 mM HEPES buffer (pH 7.4), 2 mM L-glutamine, penicillin (100U/mL), streptomcin (100 μg/mL), 0.075% sodium bicarbonate, […] 2-mercaptoethanol and 10% fetal bovine serum (Hyclone, Inc., Logan, Utah), were first induced by incubation in the presence of 50U/mL recombinant mouse y-interferon (Genzyme, Cambridge, Mass.) for 24 h prior to assay. Induced cells were then mechanically collected and centrifuged at 500×g at 4° C. and then resuspended in 50 mL RPMI 1640 media (without supplements), re-centrifuged and again resuspended in RPMI 1640 media (without supplements). The cells were counted and their concentration adjusted to 2×10^5 cells/mL and 100 μL aliquots were added to each well of a 96-well microtitre plate. The cells were then incubated for about 15 hours with E. coli O113 LPS (Control Standard. Assoc. of Cape Cod. Woods Hole, Mass.), which was added in 100 μL/well aliquots at a concentration of […] in serum-free RPMI 1640 media (this concentration being the result of titration experiments in which LPS concentration was varied between 50 pg/mL and 100 ng/mL). This incubation was performed in the absence or presence of BPI functional domain peptides in varying concentrations between 25 ng/mL and 50 μg/mL. Recombinant human BPI was used as a positive control at a concentration of 1 μg/mL. Cell proliferation was quantitatively measured by the addition of 1 μCi/well [^3H]-thymidine 5 hours after the time of initiation of the assay. After the 15-hour incubation, labeled cells were harvested onto glass fiber filters with a cell harvester (Inotech Biosystems, EQ-384, Sample Processing and Filter Counting System, Lansing, Mich.).

Experiment [3] is described as follows: 3H-heparin binding assay (affinity and capacity). The conditions noted are these: for Heparin Capacity: heparin bound at saturation; for Kd: read-out: Heparin Affinity. The procedure, abridged: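 Bound 3H-heparin was counted by liquid scintillation after 1 h incubation at 4 °C with fragments immobilised on PVDF-bottomed wells, then washing in blocking buffer. Signal was corrected for BSA-related background, and varying amounts of rBPI23 were used as positive control.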

Square brackets hold non-standard residues; d marks the D form. Ends that are not written are not given here. Peptide text beside a SMILES is read from it. 1Nal = N[C@@H](Cc1cccc2ccccc12)C(=O)O

With KSKVGYLIQLFHKK [BPI.139], the “C. albicans: pmol required for 30 mm^2 zone” value (from here on “C. albicans: pmol required”) with C. albicans was determined as 322.96 pmol. For the same compound, the “pmol added to well to achieve a 30 mm^2 bactericidal zone, S. aureus” value (shortened to “pmol added to well … S. aureus”) in the experiment on Staphylococcus aureus is on record as “b (no detectable activity up to 5 μg/well)”. The “MIC C. alb” value against Candida albicans amounted to 6.25 µg/mL. Also, in experiment [1], the “pmol added to well to achieve a 30 mm^2 bactericidal zone, E. coli O111:B4” value (“pmol added to well … E. coli O111:B4” for short) was 3,793.91 pmol. In addition, the “pmol added to well to achieve a 30 mm^2 bactericidal zone, E. coli J5” value (shortened to “pmol added to well … E. coli J5”) in experiment [2] was 1,261.37 pmol.
On the same counts, the results for KSKVGWLIQWFHKK [BPI.142] are 1243.79 pmol, “b (no detectable activity up to 5 μg/well)”, 12.50 µg/mL, “b (no detectable activity up to 5 μg/well)” and 922.21 pmol.
As for `CC(C)C[C@H](NC(=O)[C@H](Cc1ccccc1)NC(=O)[C@H](CCCNC(=N)N)NC(=O)[C@H](Cc1cccc2ccccc12)NC(=O)[C@H](Cc1cccc2ccccc12)NC(=O)[C@H](C)NC(=O)[C@H](CCCCN)NC(=O)[C@H](Cc1c[nH]c2ccccc12)NC(=O)[C@H](CCCCN)NC(=O)[C@H](CCCCN)NC(=O)[C@H](CC(C)C)NC(=O)[C@H](Cc1ccccc1)NC(=O)[C@H](CCCNC(=N)N)NC(=O)[C@H](Cc1cccc2ccccc12)NC(=O)[C@H](Cc1cccc2ccccc12)NC(=O)[C@H](C)NC(=O)[C@H](CCCCN)NC(=O)[C@H](Cc1c[nH]c2ccccc12)NC(=O)[C@H](CCCCN)NC(=O)[C@H](CCCCN)NC(=O)[C@H](CC(C)C)NC(=O)[C@H](Cc1ccccc1)NC(=O)[C@H](CCCNC(=N)N)NC(=O)[C@H](Cc1cccc2ccccc12)NC(=O)[C@H](Cc1cccc2ccccc12)NC(=O)[C@H](C)NC(=O)[C@H](CCCCN)NC(=O)[C@H](Cc1c[nH]c2ccccc12)NC(=O)[C@@H](N)CCCCN)C(=O)N[C@@H](CCCCN)C(=O)O` [BPI.157] (H-KWKA[1Nal][1Nal]RFLKKWKA[1Nal][1Nal]RFLKKWKA[1Nal][1Nal]RFLK-OH; N-terminus and C-terminus assumed), the “MIC C. alb” value in the experiment on Candida albicans is over 100.00 µg/mL. Further, in the experiment with RAW 264.7 cells, the “EC50 (peptide concentration at which the growth inhibitory effect of LPS was reversed by 50%)” value is “comparable to BPI.29” and the “IC50 (peptide concentration at which RAW cell growth was inhibited by 50%)” value is reported as “lower IC5”.
Regarding CKSKVGWLIQLFHKKC [BPI.137], the “C. albicans: pmol required” value in the experiment with C. albicans is recorded as over 2285.73 pmol. In the experiment with Staphylococcus aureus, the “pmol added to well … S. aureus” value is given as “b (no detectable activity up to 5 μg/well)”. The “pmol added to well … E. coli O111:B4” value in experiment [1] is 87,980.00 pmol. The “pmol added to well … E. coli J5” value in experiment [2] is recorded as 1,390.00 pmol.
On to KSKVGWLIALFHKK [BPI.39], for which, in experiment [3], the “Heparin Capacity” value is listed as 335.6 ng and the Kd amounted to 757 nM. Also, the “C. albicans: pmol required” value with C. albicans came out at 1791.81 pmol. The “fold decrease in the radial diffusion assay test (fungicidal activity)” value in the experiment with C. albicans (vs BPI.13) was “greater than 8 fold”. The “MIC C. alb” value against Candida albicans was determined as 12.50 µg/mL. Further, the “pmol added to well … E. coli O111:B4” value in experiment [1] is on record as “b (no detectable activity up to 5 μg/well)”. The “pmol added to well … E. coli J5” value in experiment [2] is listed as 316.20 pmol.
For the compound KSKVFWLIQLFHKK [BPI.95], in experiment [3], the “Heparin Capacity” value came out at 224.5 ng and the Kd amounted to 551 nM. Moreover, the “C. albicans: pmol required” value in the experiment on C. albicans is reported as over 1397.64 pmol. For the same compound, in the experiment on Staphylococcus aureus, the “pmol added to well … S. aureus” value is reported as “b (no detectable activity up to 5 μg/well)”. In addition, the “pmol added to well … E. coli O111:B4” value in experiment [1] was 2,809.70 pmol. The “pmol added to well … E. coli J5” value in experiment [2] is recorded as 330.88 pmol.
For the compound KSKVLWLIQLFHKK [BPI.85], in experiment [3], the “Heparin Capacity” value was 233.1 ng and the Kd is 682 nM. Also, the “C. albicans: pmol required” value in the experiment with C. albicans is given as over 1881.18 pmol. Besides, the “pmol added to well … S. aureus” value with Staphylococcus aureus is given as 14,677.13 pmol. In addition, in experiment [1], the “pmol added to well … E. coli O111:B4” value is 295,208.43 pmol. Also, the “pmol added to well … E. coli J5” value in experiment [2] is on record as 227.35 pmol.
With KSKVGWLIQLFLKK [BPI.87], in experiment [3], the “Heparin Capacity” value was determined as 280.0 ng and the Kd came out at 575 nM. In addition, the “C. albicans: pmol required” value with C. albicans was over 1535.78 pmol. Besides, the “pmol added to well … S. aureus” value with Staphylococcus aureus is reported as 868,991.70 pmol. Moreover, the “pmol added to well … E. coli O111:B4” value in experiment [1] is on record as 23,949.00 pmol. The “pmol added to well … E. coli J5” value in experiment [2] turned out to be 188.72 pmol.
With KWKAAARFLKKSKVGWLIQLFHKK [BPI.145], the “C. albicans: pmol required” value in the experiment with C. albicans is over 1886.58 pmol. For the same compound, the “pmol added to well … S. aureus” value in the experiment on Staphylococcus aureus is “b (no detectable activity up to 5 μg/well)”. Besides, in experiment [1], the “pmol added to well … E. coli O111:B4” value is reported as 9,561.00 pmol. Further, the “pmol added to well … E. coli J5” value in experiment [2] amounted to 250.00 pmol.
For KWAFAKKQKKRLKRQWLKKF [BPI.150] the same measures were over 2380.67 pmol, “b (no detectable activity up to 5 μg/well)”, 3,610.00 pmol and 220.00 pmol.
For the compound `CC[C@H](C)[C@H](N)C(=O)N[C@@H](CCCCN)C(=O)N[C@H](C(=O)N[C@@H](CO)C(=O)NCC(=O)N[C@@H](CCCCN)C(=O)N[C@@H](Cc1c[nH]c2ccccc12)C(=O)N[C@@H](CCCCN)C(=O)N[C@@H](C)C(=O)N[C@@H](CCC(N)=O)C(=O)N[C@@H](CCCCN)C(=O)N[C@@H](CCCNC(=N)N)C(=O)N[C@@H](Cc1ccccc1)C(=O)N[C@@H](CC(C)C)C(=O)N[C@@H](CCCCN)C(=O)NCCCC[C@H](NC(=O)[C@H](CCCCN)NC(=O)[C@H](CC(C)C)NC(=O)[C@H](Cc1ccccc1)NC(=O)[C@H](CCCNC(=N)N)NC(=O)[C@H](CCCCN)NC(=O)[C@H](CCC(N)=O)NC(=O)[C@H](C)NC(=O)[C@H](CCCCN)NC(=O)[C@H](Cc1c[nH]c2ccccc12)NC(=O)[C@H](CCCCN)NC(=O)CNC(=O)[C@H](CO)NC(=O)[C@@H](NC(=O)[C@H](CCCCN)NC(=O)[C@@H](N)[C@@H](C)CC)[C@@H](C)CC)C(=O)NCCCC[C@H](NC(=O)[C@H](CCCCNC(=O)[C@H](CCCCN)NC(=O)[C@H](CC(C)C)NC(=O)[C@H](Cc1ccccc1)NC(=O)[C@H](CCCNC(=N)N)NC(=O)[C@H](CCCCN)NC(=O)[C@H](CCC(N)=O)NC(=O)[C@H](C)NC(=O)[C@H](CCCCN)NC(=O)[C@H](Cc1c[nH]c2ccccc12)NC(=O)[C@H](CCCCN)NC(=O)CNC(=O)[C@H](CO)NC(=O)[C@@H](NC(=O)[C@H](CCCCN)NC(=O)[C@@H](N)[C@@H](C)CC)[C@@H](C)CC)NC(=O)[C@H](CCCCN)NC(=O)[C@H](CC(C)C)NC(=O)[C@H](Cc1ccccc1)NC(=O)[C@H](CCCNC(=N)N)NC(=O)[C@H](CCCCN)NC(=O)[C@H](CCC(N)=O)NC(=O)[C@H](C)NC(=O)[C@H](CCCCN)NC(=O)[C@H](Cc1c[nH]c2ccccc12)NC(=O)[C@H](CCCCN)NC(=O)CNC(=O)[C@H](CO)NC(=O)[C@@H](NC(=O)[C@H](CCCCN)NC(=O)[C@@H](N)[C@@H](C)CC)[C@@H](C)CC)C(=O)NCCC(=O)O)[C@@H](C)CC` [MAP.1, β-alanyl-Nα,Nε-substituted-{Nα,Nε(BPI.2)lysyl}lysine], in experiment [3], the “heparin binding capacity (in words)” value was “extremely high heparin capacity”, the “Heparin Capacity” value was 459.1 ng and the Kd was found to be 937 nM. The “pmol added to well … S. aureus” value in the experiment with Staphylococcus aureus is on record as 1,382.60 pmol. In addition, the “pmol added to well … E. coli O111:B4” value in experiment [1] is listed as 552.79 pmol. For the same compound, in the experiment with RAW 264.7 cells, the “EC50 (peptide concentration at which the growth inhibitory effect of LPS was reversed by 50%)” value came out at 0.45 ± 0.1 µg/mL. In experiment [2] (E. coli J5), the “bactericidal activity (in words)” value was “highly bactericidal”. Also, the “pmol added to well … E. coli J5” value in experiment [2] turned out to be 105.71 pmol.
For KSKVGWLIQLFFKK [BPI.94], in experiment [3], the “Heparin Capacity” value amounted to 216.1 ng and the Kd stood at 407 nM. Besides, the “C. albicans: pmol required” value in the experiment with C. albicans is recorded as over 922.54 pmol. Moreover, the “pmol added to well … S. aureus” value in the experiment with Staphylococcus aureus is reported as 9,446.60 pmol. Moreover, in experiment [1], the “pmol added to well … E. coli O111:B4” value was 3,658.80 pmol. In addition, in experiment [2], the “pmol added to well … E. coli J5” value was determined as 922.54 pmol.
